These results are taken from the NIST ThermoML archive (doi:10.1021/je700445y).

By refractive index is commonly meant the speed of light in vacuum divided by its phase velocity in the sample. A word on the mass density: it is mass per unit of volume. The term vapor or sublimation pressure denotes the pressure of vapour in equilibrium with the condensed phase.

SMILES strings stand for the structures. Numbers after ± are expanded uncertainties.

Data set [1] is described as follows: refractive index (Na D-line) (dimensionless). To be noted: 293.15 K; 101.33 kPa; Liquid; Standard Abbe refractometry.
For data set [2] the following is noted: Liquid; for mass density: 293.15 K, 101.33 kPa; for vapor or sublimation pressure: Ebulliometric method (Recirculating still).

In the case of `CCCCCC` [hexane], the refractive index in data set [1] amounted to 1.37486 ± 0.00075. In addition, the mass density in data set [2] is 660 ± 2 kg/m3. In addition, the “vapor or sublimation pressure” value in data set [2] (341.8 K) came to 101.33 ± 0.53 kPa.
As for `C=CCCCCCCCC` [1-decene], the refractive index in data set [1] was 1.4214 ± 0.00073. For the same molecule, in data set [2], the mass density was determined as 741 ± 1 kg/m3. Also, in data set [2] (443.8 K), the “vapor or sublimation pressure” value was found to be 101.33 ± 0.52 kPa.
As to `CCCCCCCC` [octane], in data set [1], the refractive index was 1.3965 ± 0.00075. Also, in data set [2], the mass density turned out to be 708 ± 1 kg/m3. Further, the “vapor or sublimation pressure” value in data set [2] (398.96 K) worked out at 101.33 ± 0.53 kPa.
